From patent publication US20160151412A1, “COMBINATION OF XENON WITH AN NMDA RECEPTOR ANTAGONIST FOR FIGHTING A NEURODEGENERATIVE DISEASE” (L'AIR LIQUIDE, SOCIETE ANONYME POUR L'ETUDE ET …, priority 2013, published 2016)

Test system: rat cortex cultures (cortical neurons)
Test: Neuronal survival (MAP-2 positive cell counts) in rat cortex cultures with PDC-induced chronic cortical degeneration under controlled gas atmosphere
Assay type: cell-based
Design: key to Neuronal survival: +++=reference level; ++: a favorable response, synonymous with a decrease in neuronal cell death in the presence of the treatments of interest; +: a favorable response, synonymous with a decrease in neuronal cell death in the presence of the treatments of interest; an unfavorable response is represented by a “−” sign, synonymous with an increase in neuronal death
Experimental: Cultures are prepared from rat embryo cortex taken from Wistar rates, on day 15.5 of gestation. The method for obtaining cortex cultures comprises the preparation of a homogeneous cell suspension by mechanical, i.e., non-enzymatic, dissociation of embryonic tissue using Leibovitz's L15 medium (Sigma Aldrich). Aliquots of this suspension are added to Nunc 48-well plates coated beforehand with a thin layer of polyethylenimine (1 mg/ml, borate buffer, pH 8.3) to allow neuronal cells to adhere (see Toulorge et al., Faseb J, 2011). The seeding density is between about 20,000 and 30,000 cells/cm^2. The cortex cultures are maintained in Neurobasal culture medium containing an […] B27 cocktail, N2 supplement, glutamine (2 mM) and a penicillin/streptomycin cocktail (see Nafia et al., J Neurochem, 2008). The medium and the supplement are available from Life Technologies. Six hours after placing in culture, 0.5 μM of the antimitotic cytarabine (Sigma Aldrich) is added to limit the proliferation of astrocytes. Until the moment when the effects of the gases of interest are evaluated, the cultures are placed in a conventional enclosure thermostated at 37° C., wherein CO2 is maintained at 5% by volume and the atmosphere is saturated with water. The culture medium is not changed during the culture period. The degenerative process is triggered by applying a glutamate reuptake system blocker, PDC (Zuiderwijk et al., Europ J Pharmacol, 1994). The NMDA receptor blocker, memantine, is added to the cultures before the application of PDC. These two products (PDC and memantine) are from RD Systems. Once the pharmacological treatments are carried out, the multi-well plates containing the cells in culture and the plate used for humidification of the internal compartment of the chamber are placed on a metal base that receives the Plexiglas incubation chamber. The two parts (base and Plexiglas chamber) are screwed together in a joined manner. A gas mixture of interest comprising (% by volume): 20% O2, 5% CO2 and 75% of the gas tested is then injected into the incubation chamber, with inlet and outlet valves open, while controlling the outlet flow by means of a flowmeter. The gases tested are nitrogen and xenon. The reference outlet flow, set for air at 10 liters/minute, is corrected as a function of the density of the mixture used. When the CO2 measurement at the outlet reaches 5%, the injection of the gas mixture is stopped and the chamber is completely sealed by closing the inlet and outlet valves. The exposure chamber is then placed in a 37° C. enclosure throughout the experimental protocol. After breaking the seal by opening the inlet and outlet valves and unscrewing the chamber from its base, the cultures are fixed with 4% formaldehyde in PBS for 12 minutes and then incubated at 4° C. with a monoclonal anti-MAP-2 antibody (dilution 1:200; clone AP-20; Sigma-Aldrich) for 3 days. This antibody is detected with an anti-mouse secondary antibody coupled with cyanine-3 (Sigma Aldrich; dilution 1:1000 in PBS). Image capturing is carried out with the 10× objective using a Nikon TE-300 inverted microscope equipped with an ORCA-ER cooled digital camera and HCl image capturing software (Hamamatsu). […] The cultures are then collected for fixing and analysis. Neuronal survival is quantified in the various experimental conditions tested by counting the number of cell bodies immunopositive for the pan-neuronal marker MAP-2.

**Q.** How did the Neuronal survival (PDC 30 μM, 75% Xe, days 12-16) turn out when `[Xe]` [Xe, xenon] was run?
**A.** ++

**Q.** And the “effect on neuronal survival versus nitrogen-alone condition (ANOVA, Student-Newman-Keuls, p<0.05)” value (PDC 30 μM, 75% xenon without memantine, n=6)?
**A.** significantly superior to that of the nitrogen-alone condition

**Q.** What about the Neuronal survival (no PDC, 20% O2 + 5% CO2 + 75% Xe, days 12-16, day-16 cortex cultures) of the same molecule?
**A.** +++

**Q.** For `O=C(O)[C@H]1CN[C@H](C(=O)O)C1` (relative stereo) [PDC, L-trans-pyrrolidine-2,4-dicarboxylic acid], which Neuronal survival (PDC 30 μM, 75% N2, days 12-16) is on record?
**A.** −

**Q.** What about the “loss of cortical neuronal cells” value (PDC 30 μM, 75% nitrogen) of the same molecule?
**A.** about 85%

**Q.** What about the survival rate (PDC 30 μM, 75% nitrogen, % of cultures not treated with PDC under 75% nitrogen) of the same molecule?
**A.** 15.9%

**Q.** Which “effect on neuronal survival” value (PDC 30 μM + memantine 0.1 μM alone, 75% nitrogen) does the source give for `CC12CC3CC(C)(C1)CC(N)(C3)C2` [memantine] here?
**A.** no significant effect

**Q.** What about the Neuronal survival (PDC 30 μM + memantine 0.1 μM, 75% N2, days 12-16) of the same molecule?
**A.** −

**Q.** And the survival rate (PDC 30 μM + memantine 1 μM by itself, 75% nitrogen)?
**A.** 54.6%

**Q.** And the Neuronal survival (PDC 30 μM + memantine 1 μM, 75% N2, days 12-16)?
**A.** ++

**Q.** And the neuronal cells saved (PDC 30 μM + memantine 10 μM itself, 75% nitrogen)?
**A.** more than 90%

**Q.** And the Neuronal survival (PDC 30 μM + memantine 10 μM, 75% N2, days 12-16)?
**A.** +++
